This note sets out measurements from patent US9012651B2, “TRPV3 modulators” (AbbVie Inc., priority 2011, dated 2015).

The assay deals with human TRPV3 receptors (Homo sapiens (Human), UniProt Q8NET8). The assay is described as follows: Calcium flux assay (FLIPR TETRA), inhibition of the 2-APB response. It is filed as cell-based. The following applies: recombinant HEK293 cells stably expressing TRPV3, Calcium-4 dye, 2-APB at its EC80. Put shortly: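 HEK293 cells stably expressing human and mouse TRPV3, plated the day before and dye-loaded 90-120 min in the dark, read on FLIPR Tetra. Peak fluorescence increase over baseline was expressed as percent of the maximal 2-APB response without compound.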
Chain of human TRPV3 receptors (Q8NET8 whole entry): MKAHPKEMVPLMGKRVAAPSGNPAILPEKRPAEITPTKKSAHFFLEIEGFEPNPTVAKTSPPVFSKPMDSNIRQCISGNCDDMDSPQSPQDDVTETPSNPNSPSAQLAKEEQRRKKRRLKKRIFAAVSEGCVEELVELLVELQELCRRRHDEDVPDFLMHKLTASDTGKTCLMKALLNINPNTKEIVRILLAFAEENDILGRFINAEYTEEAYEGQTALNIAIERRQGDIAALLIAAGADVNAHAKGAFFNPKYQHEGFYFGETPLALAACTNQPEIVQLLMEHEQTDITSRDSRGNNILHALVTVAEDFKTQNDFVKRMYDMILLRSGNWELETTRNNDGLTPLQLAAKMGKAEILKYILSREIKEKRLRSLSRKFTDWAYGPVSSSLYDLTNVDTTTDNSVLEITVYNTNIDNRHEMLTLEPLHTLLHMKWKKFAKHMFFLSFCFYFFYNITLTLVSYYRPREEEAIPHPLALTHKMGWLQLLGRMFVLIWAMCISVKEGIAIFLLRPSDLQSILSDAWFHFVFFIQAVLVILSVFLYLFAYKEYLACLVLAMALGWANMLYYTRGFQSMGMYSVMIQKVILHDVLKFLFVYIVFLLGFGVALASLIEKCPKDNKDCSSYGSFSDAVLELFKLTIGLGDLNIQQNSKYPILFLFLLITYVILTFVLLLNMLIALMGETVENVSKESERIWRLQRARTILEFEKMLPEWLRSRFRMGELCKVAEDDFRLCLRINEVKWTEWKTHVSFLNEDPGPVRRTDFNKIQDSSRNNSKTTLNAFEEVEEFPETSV
A general note: A change in cytosolic calcium serves as a functional read-out for many receptors and channels.
On to `CC(C)[C@H](CO)NCc1nc(C2CCCC3(C2)OCCO3)ccc1F` (stereo partly drawn) [Example 215, (2R)-2-({[6-(1,4-dioxaspiro[4.5]dec-7-yl)-3-fluoropyridin-2-yl]methyl}amino)-3-methylbutan-1-ol], for which the half-maximal inhibitory concentration (IC50) – broadly, the point on the concentration scale where inhibition reaches its midpoint – was found to be 5670 nM.

Consider `CC(C)[C@H](CO)NCc1nc(-c2ccc(C(F)(F)F)s2)ccc1F` [Example 290], for which the concentration for half-maximal inhibition (IC50) was 170 nM.

`C[C@H](O)[C@@H](CO)NCc1ccnc(-c2ccc(C(F)(F)F)cc2)n1` [Example 151, (2R,3S)-2-[({2-[4-(trifluoromethyl)phenyl]pyrimidin-4-yl}methyl)amino]butane-1,3-diol]: the half-maximal inhibitory concentration (IC50) is over 20000 nM.

Regarding `CCN(CC)S(=O)(=O)c1cccc(-c2ccc(F)c(CN[C@@H](CO)C(C)C)n2)c1` [Example 51, N,N-diethyl-3-[5-fluoro-6-({[(2R)-1-hydroxy-3-methylbutan-2-yl]amino}methyl)pyridin-2-yl]benzenesulfonamide], the 50% inhibitory concentration (IC50) turned out to be 500 nM.

Regarding `COCC(CO)NCc1ccnc(-c2ccc(C(F)(F)F)cn2)n1` (centres unmarked) [Example 195, 3-methoxy-2-[({2-[5-(trifluoromethyl)pyridin-2-yl]pyrimidin-4-yl}methyl)amino]propan-1-ol], the IC50 is over 20000 nM.

For the compound `CC(C)[C@@H](CO)NCc1ccnc(-c2ccc(C(F)(F)F)cc2)n1` [Example 155, (2S)-3-methyl-2-[({2-[4-(trifluoromethyl)phenyl]pyrimidin-4-yl}methyl)amino]butan-1-ol], the half-maximal inhibitory concentration (IC50) is over 20000 nM.

In the case of `CC(C)[C@H](CO)NCc1nc(C#CCCC2CCCCC2)ccc1F` [Example 288, (2R)-2-({[6-(4-cyclohexylbut-1-yn-1-yl)-3-fluoropyridin-2-yl]methyl}amino)-3-methylbutan-1-ol], the half-maximal inhibitory concentration (IC50) is 170 nM.

As to `CC(C)[C@H](CO)NCc1nc(-c2cccc(Cl)c2)ccc1F` [Example 15, (2R)-2-({[6-(3-chlorophenyl)-3-fluoropyridin-2-yl]methyl}amino)-3-methylbutan-1-ol], the 50% inhibitory concentration (IC50) was determined as 1840 nM.

Consider `CC(C)[C@H](CO)NCc1nc(-c2ccc3c(ccn3C)c2)ccc1F` [Example 248, (2R)-2-({[3-fluoro-6-(1-methyl-1H-indol-5-yl)pyridin-2-yl]methyl}amino)-3-methylbutan-1-ol], for which the IC50 stood at 1440 nM.

For `CC(C)[C@H](CO)NCc1nc(C2CCC(C)(C)CC2)ccc1F` [Example 202, (2R)-2-({[6-(4,4-dimethylcyclohexyl)-3-fluoropyridin-2-yl]methyl}amino)-3-methylbutan-1-ol], the concentration for half-maximal inhibition (IC50) is 790 nM.

On to `CC(C)[C@H](CO)NCc1nc(C#CC2CCCCC2)ccc1F` [Example 240, (2R)-2-({[6-(cyclohexylethynyl)-3-fluoropyridin-2-yl]methyl}amino)-3-methylbutan-1-ol], for which the half-inhibitory concentration (IC50) turned out to be 510 nM.

As for `CC(C)[C@H](CO)NCc1nc(-c2ccc(F)c(C#N)c2)ccc1F` [Example 279, 2-fluoro-5-[5-fluoro-6-({[(2R)-1-hydroxy-3-methylbutan-2-yl]amino}methyl)pyridin-2-yl]benzonitrile], the IC50 amounted to 940 nM.

Consider `CC(C)[C@H](CO)NCc1nc(-c2cccc3c2ccn3C)ccc1F` [Example 63, (2R)-2-({[3-fluoro-6-(1-methyl-1H-indol-4-yl)pyridin-2-yl]methyl}amino)-3-methylbutan-1-ol], for which the 50% inhibitory concentration (IC50) worked out at 1740 nM.

For the compound `C[C@@H](O)[C@H](NCc1nc(-c2ccc(C(F)(F)F)nc2)ccc1F)C(=O)Nc1ccc2ccccc2c1` [Example 130, N^2-{[5-fluoro-6′-(trifluoromethyl)-2,3′-bipyridin-6-yl]methyl}-N-naphthalen-2-yl-L-threoninamide], the 50% inhibitory concentration (IC50) came to 2550 nM.

As for `CC(C)[C@H](CO)NCc1nc(N2Cc3ccc(F)cc3C2)ccc1F` [Example 93, (2R)-2-({[3-fluoro-6-(5-fluoro-1,3-dihydro-2H-isoindol-2-yl)pyridin-2-yl]methyl}amino)-3-methylbutan-1-ol], the IC50 turned out to be 270 nM.

With `CC(C)[C@H](CO)NCc1nc(C2CCOCC2)ccc1F` [Example 204, (2R)-2-({[3-fluoro-6-(tetrahydro-2H-pyran-4-yl)pyridin-2-yl]methyl}amino)-3-methylbutan-1-ol], the IC50 was over 20000 nM.

With `CC(C)[C@H](CO)NCc1cccc(N2CCCCC2)n1` [Example 11, (2R)-3-methyl-2-({[6-(piperidin-1-yl)pyridin-2-yl]methyl}amino)butan-1-ol], the 50% inhibitory concentration (IC50) worked out at 1940 nM.

Regarding `OCC1(CNCc2ccnc(-c3ccc(C(F)(F)F)cc3)n2)CCCCC1` [Example 159, (1-{[({2-[4-(trifluoromethyl)phenyl]pyrimidin-4-yl}methyl)amino]methyl}cyclohexyl)methanol], the concentration for half-maximal inhibition (IC50) is 17600 nM.

Consider `CC(C)[C@H](CO)NCc1nc(N2CCC(C(F)(F)F)C2)ccc1F` (stereo partly drawn) [Example 67, (2R)-2-[({3-fluoro-6-[3-(trifluoromethyl)pyrrolidin-1-yl]pyridin-2-yl}methyl)amino]-3-methylbutan-1-ol], for which the 50% inhibitory concentration (IC50) stood at 420 nM.

For the compound `CC(C)[C@H](CO)NCc1nc(N2Cc3ccccc3C2)ccc1F` [Example 71, (2R)-2-({[6-[1,3-dihydro-2H-isoindol-2-yl)-3-fluoropyridin-2-yl]methyl}amino)-3-methylbutan-1-ol], the IC50 came out at 160 nM.

For `CC(C)[C@H](CO)NCc1nc(C#Cc2ccc(F)c(F)c2)ccc1F` [Example 239, (2R)-2-[({6-[(3,4-difluorophenyl)ethynyl]-3-fluoropyridin-2-yl}methyl)amino]-3-methylbutan-1-ol], the concentration for half-maximal inhibition (IC50) was 370 nM.

With `CCC1CCC(c2ccc(F)c(CN[C@@H](CO)C(C)C)n2)CC1` (stereo partly drawn) [Example 201, (2R)-2-({[6-(4-ethylcyclohexyl)-3-fluoropyridin-2-yl]methyl}amino)-3-methylbutan-1-ol], the half-inhibitory concentration (IC50) worked out at 770 nM.

On to `OC[C@H]1CCCC[C@@H]1NCc1ccnc(-c2ccc(C(F)(F)F)cc2)n1` [Example 167, {(1S,2S)-2-[({2-[4-(trifluoromethyl)phenyl]pyrimidin-4-yl}methyl)amino]cyclohexyl}methanol], for which the IC50 was over 20000 nM.

For the compound `CC(C)[C@H](CO)NCc1nc(-c2ccc(OCC(F)(F)F)nc2)ccc1F` [Example 68, (2R)-2-({[5-fluoro-6′-(2,2,2-trifluoroethoxy)-2,3′-bipyridin-6-yl]methyl}amino)-3-methylbutan-1-ol], the 50% inhibitory concentration (IC50) was 590 nM.

In the case of `OCC1(CNCc2ccnc(-c3ccc(C(F)(F)F)cc3)n2)CCC1` [Example 157, (1-{[({2-[4-(trifluoromethyl)phenyl]pyrimidin-4-yl}methyl)amino]methyl}cyclobutyl)methanol], the concentration for half-maximal inhibition (IC50) was over 20000 nM.

For the compound `CC(C)[C@H](CO)NCc1nc(N2Cc3ccc(C(F)(F)F)cc3C2)ccc1F` [Example 96, (2R)-2-[({3-fluoro-6-[5-(trifluoromethyl)-1,3-dihydro-2H-isoindol-2-yl]pyridin-2-yl}methyl)amino]-3-methylbutan-1-ol], the half-inhibitory concentration (IC50) came to 330 nM.

Regarding `CC(C)[C@H](CO)NCc1nc(-c2ccc(F)c(F)c2F)ccc1F` [Example 245, (2R)-2-({[3-fluoro-6-(2,3,4-trifluorophenyl)pyridin-2-yl]methyl}amino)-3-methylbutan-1-ol], the half-maximal inhibitory concentration (IC50) came out at 160 nM.

For `CC(C)(CO)NCc1ccnc(-c2ccc(C(F)(F)F)cc2)n1` [Example 136, 2-methyl-2-[({2-[4-(trifluoromethyl)phenyl]pyrimidin-4-yl}methyl)amino]propan-1-ol], the 50% inhibitory concentration (IC50) is over 20000 nM.

As to `CCC[C@H](CO)NCc1nc(-c2ccc(C(F)(F)F)cc2)ccc1F` [Example 83, (2R)-2-[({3-fluoro-6-[4-(trifluoromethyl)phenyl]pyridin-2-yl}methyl)amino]pentan-1-ol], the half-inhibitory concentration (IC50) was 460 nM.

Consider `CC(C)[C@H](CO)NCc1nc(-c2ccc(C(F)(F)F)cc2)ncc1F` [Example 131, (2R)-2-[({5-fluoro-2-[4-(trifluoromethyl)phenyl]pyrimidin-4-yl}methyl)amino]-3-methylbutan-1-ol], for which the 50% inhibitory concentration (IC50) stood at 460 nM.

For `CC(C)[C@H](CO)NCc1nc(-c2cccc(C(=O)N3CCCCC3)c2)ccc1F` [Example 45, {3-[5-fluoro-6-({[(2R)-1-hydroxy-3-methylbutan-2-yl]amino}methyl)pyridin-2-yl]phenyl}(piperidin-1-yl)methanone], the concentration for half-maximal inhibition (IC50) is 3470 nM.

With `CC(C)[C@H](CO)NCc1nc(-c2cccc(-n3cccn3)c2)ccc1F` [Example 260, (2R)-2-[({3-fluoro-6-[3-(1H-pyrazol-1-yl)phenyl]pyridin-2-yl}methyl)amino]-3-methylbutan-1-ol], the IC50 worked out at 300 nM.

Regarding `CC(C)[C@H](CO)NCc1nc([C@H]2CC[C@@H](C(F)(F)F)CC2)ccc1F` [Example 257, (2R)-2-[({3-fluoro-6-[cis-4-(trifluoromethyl)cyclohexyl]pyridin-2-yl}methyl)amino]-3-methylbutan-1-ol], the IC50 was found to be 340 nM.

On to `OCC1(CNCc2ccnc(-c3ccc(C(F)(F)F)cc3)n2)CCCC1` [Example 158, (1-{[({2-[4-(trifluoromethyl)phenyl]pyrimidin-4-yl}methyl)amino]methyl}cyclopentyl)methanol], for which the IC50 was over 20000 nM.

With `CC(C)[C@@H](CO)NCc1nc(-c2ccc(C(F)(F)F)nc2)ccc1F` [Example 35, (2S)-2-({[5-fluoro-6′-(trifluoromethyl)-2,3′-bipyridin-6-yl]methyl}amino)-3-methylbutan-1-ol], the IC50 was over 20000 nM.

On to `CC(C)[C@H](CO)NCc1ccnc(-c2ccc(C(F)(F)F)nc2)n1` [Example 184, (2R)-3-methyl-2-[({2-[6-(trifluoromethyl)pyridin-3-yl]pyrimidin-4-yl}methyl)amino]butan-1-ol], for which the 50% inhibitory concentration (IC50) stood at 2940 nM.

Regarding `CC(C)(C)[C@H](CO)NCc1nc(-c2ccc(C(F)(F)F)cc2)ccc1F` [Example 85, (2R)-2-((3-fluoro-6-(4-(trifluoromethyl)phenyl)pyridin-2-yl)methylamino)-3,3-dimethylbutan-1-ol], the IC50 came out at 520 nM.

`OC(CCNCc1ccnc(-c2ccc(C(F)(F)F)cc2)n1)c1ccccc1` (centres unmarked) [Example 164, 1-phenyl-3-[({2-[4-(trifluoromethyl)phenyl]pyrimidin-4-yl}methyl)amino]propan-1-ol]: the concentration for half-maximal inhibition (IC50) was over 20000 nM.
